Results on 1 compound are retold here after patent US20090221082A1, “Microfluidic Evaporators And Determining Physical And/Or Chemical Properties Of Chemical Compounds Therewith” (Rhodia Operations, priority 2005, published 2009).

The structures appear in SMILES notation.

The data set can be described thus: Evaporation-induced nucleation and crystal growth of KCl aqueous solutions in microchannel fingers. The format is physicochemical. An excerpt:
The devices used are two-layer PDMS on glass Microsystems (FIG. 1). The microchannels (flowing channel(s)) of the bottom layer are filled with the solution of interest, while air is circulated through the microchannels (evaporation chamber) of the top layer so as to remove the water that pervaporates through the thin membrane of PDMS that separate the two networks where they overlap (thickness e in the 10-30 μm range). Many combinations of geometries for the bottom and top networks can be envisaged. We focus here on the simple “finger” geometry of FIG. 1, a dead end (blind extremity) channel of rectangular cross section (height h, width w, length L) connected to a larger (millimetric) feeding reservoir containing the solution to be concentrated. A terminal section of length L0<L (typically mms to cms) is covered by the water removal network. The operation principle is simple: water in the bottom channel pervaporates through the thin membrane, which induces a compensating flow from the reservoir and concentration of solutes at the finger tip. […]
FIG. 11: Top: view of the chip with 15 microchannels with different evaporation lengths L0 (the bottom of the frame is the end of the evaporation zone). […] Crystal growth is then monitored xf(t). […]

`[Cl-].[K+]` [KCl, potassium chloride]: the nucleation concentration cc (KCl aqueous solution, at this temperature) stood at 4.0 ± 0.5 M. Also, the “solute concentration cx in the growing crystal (crystal density)” value (from initial crystal growth rate and mass conservation, Te=800±50 s) came to 20 ± 2 M.
